Data on 16 compounds can be found in PubChem BioAssay (NCI).

Values joined by “and” are separate entries in the source; they are usually repeats but may differ in a detail not shown here. Identical values can stand only once.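 Cells were grown in 96-well plates and exposed to each compound for 48 hours at five concentrations; endpoints were interpolated linearly between bracketing concentrations, or set to the highest concentration if not reached. The concentration for 50% growth inhibition is given as GI50. TGI: total growth inhibition.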 A value given as a limit tells only on which side of the number the result lay.

Some test systems named below: DMS 114 small cell lung; DMS 273 small cell lung; HOP-18 NSCLC; LXFL 529 NSCLC; M19-MEL melanoma; SNB-78 CNS; XF 498 CNS; BT-549 breast; DU-145 prostate; HS 578T breast; MDA-MB-435; NCI/ADR-RES ovarian; PC-3 prostate; RXF-631 renal.
Common to all, as to assay: DTP human tumour cell line panel, 48 h

The term TGI denotes the concentration at which net growth stops. Lower therefore signals more potent growth arrest. With `O=C(CC(=O)c1ccccc1)C(=O)NC12CC3CC(CC(C3)C1)C2`, the TGI with DMS 114 small cell lung is > 58.4 µM; in the assay with DMS 273 small cell lung, > 70.2 µM; in the assay on HOP-18 NSCLC, > 100 µM; with LXFL 529 NSCLC, > 100 µM; in the assay on M19-MEL melanoma it was > 100 µM; in the assay with SNB-78 CNS, > 100 µM. Further, the TGI in the assay with XF 498 CNS was > 100 µM.

Consider `COc1cc2c3cc1Oc1c(OC)c(OC)cc4c1C(Cc1ccc(cc1)Oc1cc(ccc1O)CC3N(C)CC2)N(C)CC4` (stereo not given), for which the TGI with BT-549 breast was 22.8 µM; in the assay on DMS 114 small cell lung, 24.8 µM; in the assay with DU-145 prostate, 24.8 µM; in the assay with HOP-18 NSCLC, > 100 µM; with HS 578T breast, 31.4 µM; with LXFL 529 NSCLC, 27.8 µM. Besides, the TGI in the assay on M19-MEL melanoma stood at 24.2 µM; with MDA-MB-435 it was 31.9 µM; in the assay with NCI/ADR-RES ovarian it was 60.5 µM; in the assay with PC-3 prostate, 28.4 µM; with SNB-78 CNS, 64.6 µM.

With `O=C(O)c1cc(=O)c2cc(C(=O)c3cccs3)c(Cl)c(Cl)c2o1`, the TGI with LXFL 529 NSCLC and in the assay with SNB-78 CNS was > 100 µM in each case.

Consider `CCOC(=O)c1cn(CC)c2cc3c(cc2c1=O)SCS3`, for which the total growth inhibition concentration (TGI) with DMS 114 small cell lung, with DMS 273 small cell lung, in the assay on HOP-18 NSCLC, in the assay with LXFL 529 NSCLC, with M19-MEL melanoma and in the assay with RXF-631 renal was > 100 µM in each case.

Turning to `CCOC(=O)/C=C1\Oc2ccccc2C1(C)O` (stereo not given), the TGI with DMS 114 small cell lung, in the assay on DMS 273 small cell lung, with HOP-18 NSCLC, in the assay with LXFL 529 NSCLC, in the assay on M19-MEL melanoma and with SNB-78 CNS was > 100 µM in each case.

With `CC(=O)O[C@H]1CC[C@@]2(C)C(=C/C(=N\[N+](=O)[O-])[C@H]3C4CCC([C@H](C)CCCC(C)C)[C@@]4(C)CCC32)C1` (stereo not given in full), the TGI in the assay with DMS 114 small cell lung, in the assay with DMS 273 small cell lung, in the assay on LXFL 529 NSCLC, in the assay on M19-MEL melanoma and in the assay on XF 498 CNS was > 100 µM each time.

Turning to `O=c1[nH]cnc2c1ncn2CCCCO`, the TGI in the assay with DMS 114 small cell lung, with HOP-18 NSCLC, in the assay with LXFL 529 NSCLC, in the assay with M19-MEL melanoma and in the assay on SNB-78 CNS was > 100 µM in each case.

`CCSC(=O)C1(C)OC2CCCCC2C1=O` (stereo not given): the TGI with DMS 114 small cell lung, in the assay on DMS 273 small cell lung, with HOP-18 NSCLC, in the assay on LXFL 529 NSCLC, in the assay with M19-MEL melanoma and in the assay with SNB-78 CNS was > 100 µM throughout.

As for `O=c1[nH]c2c(c3ccccc13)CCc1ccccc1-2`, the TGI in the assay on DMS 114 small cell lung, in the assay on DMS 273 small cell lung, with LXFL 529 NSCLC, with M19-MEL melanoma and in the assay on SNB-78 CNS was > 100 µM in each case.

Consider `O=C1/C(=C\c2ccccc2)c2ccccc2N1/N=C\c1ccccc1`, for which the TGI with DMS 114 small cell lung, in the assay with DMS 273 small cell lung, with HOP-18 NSCLC, in the assay on M19-MEL melanoma, in the assay on SNB-78 CNS and with XF 498 CNS was > 100 µM in each case.

Broadly, the GI50 is the concentration that inhibits growth by half. With `Nc1nc(Cl)nc2c1ncn2[C@@H]1O[C@H](COS(N)(=O)=O)[C@@H](O)[C@H]1O`, the GI50 was 0.009 µM and 0.0243 µM in the assay on BT-549 breast; 0.00413 µM with DU-145 prostate; 0.0263 µM and 0.0256 µM in the assay with HS 578T breast; 0.0171 µM and 0.0176 µM in the assay with MDA-MB-435; 0.0121 µM and 0.0196 µM in the assay with NCI/ADR-RES ovarian; 0.0209 µM and 0.0258 µM in the assay with PC-3 prostate. For the same compound, the concentration for total growth inhibition (TGI) in the assay on BT-549 breast is 0.0646 µM and 0.0713 µM; with DU-145 prostate it was 0.0349 µM and 0.0301 µM; in the assay with HS 578T breast it was 0.0869 µM and 0.0787 µM; with MDA-MB-435, 0.0327 µM and 0.0341 µM; in the assay with NCI/ADR-RES ovarian, 0.054 µM and 0.145 µM; in the assay with PC-3 prostate, 0.0737 µM and 0.08 µM.

As for `CNC(=O)c1cncc(/C=C/c2c(Cl)cccc2Cl)c1`, the GI50 is > 25 µM with BT-549 breast; > 25 µM in the assay with DU-145 prostate; 7.17 µM in the assay with HS 578T breast; 6.88 µM with MDA-MB-435; > 21.2 µM with NCI/ADR-RES ovarian; > 21.6 µM in the assay on PC-3 prostate. In addition, the TGI with BT-549 breast is > 25 µM; in the assay with DU-145 prostate, > 25 µM; in the assay with HS 578T breast, > 21.6 µM; in the assay on MDA-MB-435, > 25 µM; with NCI/ADR-RES ovarian it was > 25 µM; in the assay with PC-3 prostate, > 25 µM.

`CCN(CC)CCC(=O)O[C@H]1CC[C@H](CC(C)[C@H]2CC(=O)C(C)C=C(C)[C@H](OC(=O)CCN(CC)CC)C(OC)C(=O)[C@@H](C)CC(C)/C=C/C=C/C=C(C)C(OC)CC3CC[C@H](C)[C@](O)(O3)C(=O)C(=O)N3CCCCC3C(=O)O2)CC1OC` (stereo not given in full): the TGI with BT-549 breast was 0.946 µM; in the assay on DMS 114 small cell lung it was 1.54 µM; in the assay with DMS 273 small cell lung, 2.32 µM; with DU-145 prostate it was > 10 µM and 8.38 µM; in the assay with HOP-18 NSCLC, 3.35 µM; in the assay on HS 578T breast it was 2.28 µM. Besides, the TGI is 1.74 µM in the assay with LXFL 529 NSCLC; 2.35 µM and 2.04 µM in the assay with MDA-MB-435; 8.13 µM and 6.58 µM in the assay on NCI/ADR-RES ovarian; 2.57 µM and 2.4 µM in the assay with PC-3 prostate; 1.7 µM in the assay on SNB-78 CNS. Besides, the figures for the GI50 in the assay on DU-145 prostate, with MDA-MB-435 and in the assay with PC-3 prostate were 1.17 µM, 1.14 µM and 1.22 µM, respectively.

As to `CC(=O)O/N=C/c1cc2c(cc1Br)OCO2`, the TGI in the assay on DMS 114 small cell lung, in the assay with DMS 273 small cell lung, with LXFL 529 NSCLC, with M19-MEL melanoma and with XF 498 CNS was > 349 µM in each case.

`O=C(CC(=O)C1CCOC1=O)C(=O)Nc1ccc(Cl)cc1` (stereo not given): the TGI with DMS 114 small cell lung, with DMS 273 small cell lung, with LXFL 529 NSCLC, in the assay on M19-MEL melanoma, in the assay with RXF-631 renal and with SNB-78 CNS was > 100 µM throughout.

Turning to `NS(=O)(=O)c1ccc(N2N=C(c3cccs3)CC2c2ccccc2O)cc1` (stereo not given), the GI50 in the assay on BT-549 breast is 2.05 µM; with DU-145 prostate, 0.903 µM; in the assay with HS 578T breast it was 0.845 µM; in the assay on MDA-MB-435, 0.704 µM; with NCI/ADR-RES ovarian, 4.84 µM; with PC-3 prostate, 1.05 µM. The TGI was determined as 9.15 µM with BT-549 breast; 2.33 µM in the assay with DU-145 prostate; 2.7 µM in the assay on HS 578T breast; 1.8 µM with MDA-MB-435; 19 µM in the assay with NCI/ADR-RES ovarian; 4.38 µM with PC-3 prostate.
